Measurements published in patent publication US9675612B2, “Substituted thiazolopyrimidines” (BAYER PHARMA AKTIENGESELLSCHAFT, priority 2013, dated 2017).

Biological target: human full-length MKNK1 (Homo sapiens (Human), UniProt Q9BUB5, T344D)
Experiment: MKNK1 kinase high ATP assay (TR-FRET)
Format: biochemical
Conditions: high ATP (2 mM final), 15 min preincubation with MKNK1, TR-FRET
Experimental: MKNK1 Kinase High ATP Assay
MKNK1-inhibitory activity at high ATP of compounds of the present invention after their preincubation with MKNK1 was quantified employing the TR-FRET-based MKNK1 high ATP assay as described in the following paragraphs.
As substrate for the kinase reaction the biotinylated peptide biotin-Ahx-[…] (C-terminus in amide form) was used, which can be purchased e.g. from the company Biosyntan (Berlin-Buch, Germany).
For the assay 50 nL of a 100 fold concentrated solution of the test compound in DMSO was pipetted into a black low volume 384 well microtiter plate (Greiner Bio-One, Frickenhausen, Germany), 2 μL of a solution of MKNK1 in aqueous assay buffer [50 mM HEPES pH 7.5, 5 mM MgCl2, 1.0 mM dithiothreitol, 0.005% (v/v) Nonidet-P40 (Sigma)] was added and the mixture was incubated for 15 min at 22° C. to allow pre-binding of the test compounds to the enzyme before the start of the kinase reaction. Then the kinase reaction was started by the addition of 3 μL of a solution of adenosine-tri-phosphate (ATP, 3.3 mM=>final conc. in the 5 μL assay volume is 2 mM) and substrate (0.1 μM=>final conc. in the 5 μL assay volume is 0.06 μM) in assay buffer and the resulting mixture was incubated for a reaction time of 30 min at 22° C. The concentration of MKNK1 was adjusted depending of the activity of the enzyme lot and was chosen appropriate to have the assay in the linear range, typical concentrations were in the range of 0.003 μg/mL. The reaction was stopped by the addition of 5 μL of a solution of TR-FRET detection reagents (5 nM streptavidine-XL665 [Cisbio Bioassays, Codolet, France] and 1 nM anti-ribosomal protein S6 (pSer236)-antibody from Invitrogen [#44921G] and 1 nM LANCE EU-W1024 labeled ProteinG [Perkin-Elmer, product no. AD0071]) in an aqueous EDTA-solution (100 mM EDTA, 0.1% (w/v) bovine serum albumin in 50 mM HEPES pH 7.5).
The resulting mixture was incubated for 1 h at 22° C. to allow the formation of complex between the phosphorylated biotinylated peptide and the detection reagents. Subsequently the amount of phosphorylated substrate was evaluated by measurement of the resonance energy transfer from the Eu-chelate to the streptavidine-XL.

human full-length MKNK1, sequence (Q9BUB5 other isoform, or with tags, fused parts or gaps T344D): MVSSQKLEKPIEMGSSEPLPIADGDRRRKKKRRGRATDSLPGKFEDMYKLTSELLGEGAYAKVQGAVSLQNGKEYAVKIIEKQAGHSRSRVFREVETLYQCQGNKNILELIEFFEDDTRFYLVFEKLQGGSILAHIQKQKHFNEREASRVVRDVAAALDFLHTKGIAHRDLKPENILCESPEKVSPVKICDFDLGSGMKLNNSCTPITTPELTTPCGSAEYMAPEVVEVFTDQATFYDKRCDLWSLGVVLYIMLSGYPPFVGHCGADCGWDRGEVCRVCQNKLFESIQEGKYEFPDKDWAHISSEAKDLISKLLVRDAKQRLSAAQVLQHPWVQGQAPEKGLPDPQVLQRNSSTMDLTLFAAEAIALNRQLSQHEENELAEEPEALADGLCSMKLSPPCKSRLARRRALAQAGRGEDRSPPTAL

Structure (SMILES) | IC50
O=c1[nH]c2ccc(Nc3ncnc4sc(CC5CC5)nc34)cc2s1 [Example 1, 6-{[2-(Cyclopropylmethyl)[1,3]thiazolo[5,4-d]pyrimidin-7-yl]amino}-1,3-benzothiazol-2(3H)-one] | 37 nM
O=c1[nH]c2ccc(Nc3ncnc4sc(C5CCC5)nc34)cc2s1 [Example 2, 6-[(2-Cyclobutyl[1,3]thiazolo[5,4-d]pyrimidin-7-yl)amino]-1,3-benzothiazol-2(3H)-one] | 87 nM
COc1cc2[nH]ncc2cc1Nc1ncnc2sc(Cc3ccccc3)nc12 [Example 4, 2-Benzyl-N-(6-methoxy-1H-indazol-5-yl)[1,3]thiazolo[5,4-d]pyrimidin-7-amine] | 20 nM
COCc1nc2c(Nc3cc4cn[nH]c4cc3OC)ncnc2s1 [Example 5, N-(6-Methoxy-1H-indazol-5-yl)-2-(methoxymethyl)[1,3]thiazolo[5,4-d]pyrimidin-7-amine] | 25 nM
COc1cc2[nH]c(=O)sc2cc1Nc1ncnc2sc(C3CCCCC3)nc12 [Example 7, 6-[(2-Cyclohexyl[1,3]thiazolo[5,4-d]pyrimidin-7-yl)amino]-5-methoxy-1,3-benzothiazol-2(3H)-one] | 354 nM
c1nc(Nc2ccc3[nH]ncc3c2)c2nc(C3CCCCC3)sc2n1 [Example 8, 2-Cyclohexyl-N-(1H-indazol-5-yl)[1,3]thiazolo[5,4-d]pyrimidin-7-amine] | 56 nM
c1nc(Nc2ccc3[nH]ncc3c2)c2nc(CC3CC3)sc2n1 [Example 9, 2-(Cyclopropylmethyl)-N-(1H-indazol-5-yl)[1,3]thiazolo[5,4-d]pyrimidin-7-amine] | 36 nM
c1nc(Nc2ccc3[nH]ncc3c2)c2nc(C3CCC3)sc2n1 [Example 10, 2-Cyclobutyl-N-(1H-indazol-5-yl)[1,3]thiazolo[5,4-d]pyrimidin-7-amine] | 54 nM
c1ccc(Cc2nc3c(Nc4ccc5[nH]ncc5c4)ncnc3s2)cc1 [Example 11, 2-Benzyl-N-(1H-indazol-5-yl)[1,3]thiazolo[5,4-d]pyrimidin-7-amine] | 35 nM
CC1(O)CN(C(=O)CCc2nc3c(Nc4ccc5[nH]ncc5c4)ncnc3s2)C1 [Example 14, 1-(3-Hydroxy-3-methylazetidin-1-yl)-3-[7-(1H-indazol-5-ylamino)[1,3]thiazolo[5,4-d]pyrimidin-2-yl]propan-1-one] | 126 nM
COc1cc2[nH]ncc2cc1Nc1ncnc2scnc12 [Example 15, N-(6-Methoxy-1H-indazol-5-yl)[1,3]thiazolo[5,4-d]pyrimidin-7-amine] | 47 nM
c1nc(Nc2ccc3[nH]ncc3c2)c2ncsc2n1 [Example 16, N-(1H-Indazol-5-yl)[1,3]thiazolo[5,4-d]pyrimidin-7-amine] | 186 nM
O=c1[nH]c2ccc(Nc3ncnc4scnc34)cc2s1 [Example 19, 6-([1,3]Thiazolo[5,4-d]pyrimidin-7-ylamino)-1,3-benzothiazol-2(3H)-one] | 159 nM
COc1cc2[nH]ncc2cc1Nc1ncnc2sc(COCc3ccccc3)nc12 [Example 20, 2-[(Benzyloxy)methyl]-N-(6-methoxy-1H-indazol-5-yl)[1,3]thiazolo[5,4-d]pyrimidin-7-amine] | 36 nM
CN(C)C(=O)CCc1nc2c(Nc3ccc4[nH]ncc4c3)ncnc2s1 [Example 21, 3-[7-(1H-Indazol-5-ylamino)[1,3]thiazolo[5,4-d]pyrimidin-2-yl]-N,N-dimethylpropanamide] | 100 nM
COc1cc2[nH]ncc2cc1Nc1ncnc2sc(CCc3ccccc3)nc12 [Example 22, N-(6-Methoxy-1H-indazol-5-yl)-2-(2-phenylethyl)[1,3]thiazolo[5,4-d]pyrimidin-7-amine] | 38 nM
c1ccc(CCc2nc3c(Nc4ccc5[nH]ncc5c4)ncnc3s2)cc1 [Example 23, N-(1H-indazol-5-yl)-2-(2-phenylethyl)[1,3]thiazolo[5,4-d]pyrimidin-7-amine] | 51 nM
COc1cc2[nH]c(=O)sc2cc1Nc1ncnc2sc(CCc3ccccc3)nc12 [Example 25, 5-Methoxy-6-{[2-(2-phenylethyl)[1,3]thiazolo[5,4-d]pyrimidin-7-yl]amino}-1,3-benzothiazol-2(3H)-one] | 10000 nM
COc1cc2[nH]ncc2cc1Nc1ncnc2sc(CCCC(=O)N(C)C)nc12 [Example 26, 4-{7-[(6-Methoxy-1H-indazol-5-yl)amino][1,3]thiazolo[5,4-d]pyrimidin-2-yl}-N, N-dimethylbutanamide] | 85 nM
COc1cc2[nH]c(=O)sc2cc1Nc1ncnc2sc(C(=O)N(C)C)nc12 [Example 28, 7-[(5-Methoxy-2-oxo-2,3-dihydro-1,3-benzothiazol-6-yl)amino]-N,N-dimethyl[1,3]thiazolo[5,4-d]pyrimidine-2-carboxamide] | 1080 nM
CCOc1cc2[nH]ncc2cc1Nc1ncnc2sc(C(=O)N(C)C)nc12 [Example 30, 7-[(6-Ethoxy-1H-indazol-5-yl)amino]-N, N-dimethyl[1,3]thiazolo[5,4-d]pyrimidine-2-carboxamide] | 42 nM
O=C(c1nc2c(Nc3ccc4[nH]ncc4c3)ncnc2s1)N1CCCCC1 [Example 31, [7-(1H-Indazol-5-ylamino)[1,3]thiazolo[5,4-d]pyrimidin-2-yl](piperidin-1-yl)methanone] | 188 nM
O=C(c1nc2c(Nc3ccc4[nH]c(=O)sc4c3)ncnc2s1)N1CCCCC1 [Example 32, 6-{[2-(Piperidin-1-ylcarbonyl)[1,3]thiazolo[5,4-d]pyrimidin-7-yl]amino}-1,3-benzothiazol-2(3H)-one] | 137 nM
COc1cc2[nH]ncc2cc1Nc1ncnc2sc(C(=O)N3CCCCC3)nc12 [Example 33, {7-[(6-Methoxy-1H-indazol-5-yl)amino][1,3]thiazolo[5,4-d]pyrimidin-2-yl}(piperidin-1-yl)methanone] | 17 nM
CCOc1cc2[nH]ncc2cc1Nc1ncnc2sc(C(=O)N3CCCCC3)nc12 [Example 34, {7-[(6-Ethoxy-1H-indazol-5-yl)amino][1,3]thiazolo[5,4-d]pyrimidin-2-yl}(piperidin-1-yl)methanone] | 34 nM
CC(C)Oc1cc2[nH]ncc2cc1Nc1ncnc2sc(C(=O)N3CCCCC3)nc12 [Example 35, Piperidin-1-yl(7-{[6-(propan-2-yloxy)-1H-indazol-5-yl]amino}[1,3]thiazolo[5,4-d]pyrimidin-2-yl)methanone] | 102 nM
COc1cc2[nH]ncc2cc1Nc1ncnc2sc(C(=O)N(C)CC(=O)N(C)C)nc12 [Example 38, N-[2-(Dimethylamino)-2-oxoethyl]-7-[(6-methoxy-1H-indazol-5-yl)amino]-N-methyl[1,3]thiazolo[5,4-d]pyrimidine-2-carboxamide] | 136 nM
CN(C)C(=O)CCN(C)C(=O)c1nc2c(Nc3ccc4[nH]c(=O)sc4c3)ncnc2s1 [Example 41, N-[3-(Dimethylamino)-3-oxopropyl]-N-methyl-7-[(2-oxo-2,3-dihydro-1,3-benzothiazol-6-yl)amino][1,3]thiazolo[5,4-d]pyrimidine-2-carboxamide] | 2750 nM
CN(C)C(=O)c1nc2c(Nc3ccc4[nH]ncc4c3)ncnc2s1 [Example 43, 7-(1H-Indazol-5-ylamino)-N,N-dimethyl[1,3]thiazolo[5,4-d]pyrimidine-2-carboxamide] | 202 nM
COc1cc2[nH]ncc2cc1Nc1ncnc2sc(C(=O)N(C)CCC(=O)N(C)C)nc12 [Example 46, N-[3-(Dimethylamino)-3-oxopropyl]-7-[(6-methoxy-1H-indazol-5-yl)amino]-N-methyl[1,3]thiazolo[5,4-d]pyrimidine-2-carboxamide] | 184 nM
